This is an account of results in article PMC9227536, “Prediction of Pharmacokinetics of IDP-73152 in Humans Using Physiologically-Based Pharmacokinetics” (Pharmaceutics, 2022).

Like-named read-outs stand apart in the source and are kept apart here.

Data set [1] in a line: Blood partitioning (LC-MS/MS-based depletion method), rat. Format: in vitro ADME. As to conditions: whole blood, rats blood, 0.3, 1, 3 μM, read-out: BP (blood-to-plasma concentration ratio). On the procedure: In this study, the partitioning of IDP-73152 in blood samples obtained from mice, rats, dogs, and humans was determined using the LC-MS/MS-based depletion method with slight modifications. DP-73152 was added to an aliquot (1 mL) of blank blood or plasma at a final concentration of 0.3, 1, or 3 μM. The mixture was incubated at 37 °C in a water bath for 60 min. After the incubation, the plasma was separated by centrifugation of the blood samples for 5 min at 10,000× g/4 °C and stored at -80 °C until analysis. The blood-to-plasma concentration ratio (BP) was calculated using the equation:(3) BP=[…], where […] is the concentration of the compound at the corresponding blood concentration in the plasma, and CPL is the concentration from the plasma sample separated from the incubated blood.

Data set [2] can be described thus: Tissue distribution at steady state, constant-rate infusion in rats. As to conditions: for Kp at 10 h: 10 h infusion, read-out: KP,ss. Format: in vivo. The procedure: In this study, the extent of tissue distribution of IDP-73152 was also determined in rats. Rats received IDP-73152 at a constant rate of infusion (i.e., the rate of 0.8 mg/h (in 0.6 mL/h)) using a syringe pump (PHD ULTRA, Harvard apparatus, Holliston, MA, USA). The steady state was assumed to have been achieved when IDP-73152 was infused for 10 h (see below). Upon completion of the infusion, the animal was sacrificed, and major tissues (i.e., adipose tissue, brain, heart, kidney, liver, lung, muscle, skin, spleen, and testis) were collected. Assuming the density of tissues to be 1 g/mL, tissue samples were homogenized in twice their volume of phosphate buffered saline using a homogenizer (Ultra Turrax homogenizer, IKA-Werke GmbH & Co. KG, Staufen, Germany). Plasma samples and tissue homogenates were stored at −80 °C until analysis. The tissue-to-plasma concentration ratio at steady state (KP,ss) was then calculated for each tissue using the following equation [23, 24, 25]:(8) KP,ss=Ctissue,ss/Cplasma,ss, where Ctissue,ss and Cplasma,ss represent the concentration of the compound in the tissue and plasma at steady-state.
For the estimation of the volume of the distribution of IDP-73512 in rats, the steady-state volume of distribution (Vss) was calculated using the following equation [30]:(10) Vss=VP+Vrbc×EP+∑VT,i×KP,ss,i, where Vp, Vrbc, and VT,i are the volumes of plasma, red blood cells, and tissues, respectively. The erythrocyte-to-plasma partition coefficient (EP), is calculated by EP=1+(BP−1)/Hematocrit . The KP,ss for each tissue obtained from Equation (8) was applied for Equation (10). For the case of non-eliminating organs, the KP,ss was regarded as the tissue-to-plasma partition coefficient (KP) in PBPK equations (Appendix A). For the case of the liver—i.e., the eliminating organ—the KP,ss (KP,ss,LI) had to be corrected to account for the equilibrium being altered by the elimination. Thus, a PBPK-operative KP for liver (KP,LI) was calculated using the following equation [31]:(11) KP,LI=KP,ss,LI/(1−ER), where ER is the hepatic extraction ratio of the compound (i.e., CLh/(QLI·BP)). In this study, a compartmental absorption and transit (CAT) model consisting of stomach and five intestinal segments was considered for the description of the intestinal absorption kinetics of IDP-73152 in animals and humans. We assumed that the initial compartment denoted the stomach (Equation (12)), and the subsequent three compartments represented the small intestine and two additional compartments for the large intestine (i.e., a total of six compartments, with absorption occurring in the five intestinal compartments) (Equation (13)). The differential equations describing the rate of drug absorption and transit in the gastrointestinal tract can be written as: […]

For `CC(C)(C)[C@H](NC(=O)[C@H](CC1CCCC1)CN(O)C=O)C(=O)N1CCC(NCc2cc(F)c(F)cc2F)CC1` [IDP-73152], in data set [1], the blood plasma ratio at 60 min was 1.56 ± 0.37. Further, the Kp at 10 h in data set [2] (Sprague Dawley, rat, intravenous, 0.8 mg/h, adipose tissue) amounted to 0.853 ± 0.196; in data set [2] (Sprague Dawley, rat, intravenous, 0.8 mg/h, brain), 0.0729 ± 0.0167; in data set [2] (Sprague Dawley, rat, intravenous, 0.8 mg/h, heart), 2.15 ± 0.22; in data set [2] (Sprague Dawley, rat, intravenous, 0.8 mg/h, kidney), 8.68 ± 1.83; in data set [2] (Sprague Dawley, rat, intravenous, 0.8 mg/h, liver) it was 12.2 ± 3.3; in data set [2] (Sprague Dawley, rat, intravenous, 0.8 mg/h, lung), 7.13 ± 1.28. Besides, the Kp at 10 h in data set [2] (Sprague Dawley, rat, intravenous, 0.8 mg/h, muscle) was 1.37 ± 0.3; in data set [2] (Sprague Dawley, rat, intravenous, 0.8 mg/h, skin) it was 1.08 ± 0.38; in data set [2] (Sprague Dawley, rat, intravenous, 0.8 mg/h, spleen) it was 4.82 ± 1.3; in data set [2] (Sprague Dawley, rat, intravenous, 0.8 mg/h, testis), 0.338 ± 0.089. Also, the “plasma concentration during infusion” value in data set [2] (intravenous infusion 0.8 mg/h, 10 h) came out at 2120 ± 340 ng/mL. The Vd in data set [2] (male, Sprague Dawley, rat, plasma and tissue homogenates, intravenous, 0.8 mg/h, from KP,ss of ten tissues, read-out: Vss calculated by Equation (10)) is 2.09 L/kg. In data set [2] (male, Sprague Dawley, rat, plasma, intravenous infusion 0.8 mg/h for 10 h, from CLp, read-out: expected steady-state concentration), the concentration at 10 h worked out at 2120 ± 340 ng/mL. Besides, the concentration at 8 h in data set [2] (male, Sprague Dawley, rat, plasma, intravenous infusion 0.8 mg/h, 8 h, read-out: plasma concentration during infusion) was determined as 2070 ± 360 ng/mL. Further, in data set [2] (male, Sprague Dawley, rat, plasma, intravenous infusion 0.8 mg/h, 9 h, read-out: plasma concentration during infusion), the concentration at 9 h is 1910 ± 270 ng/mL.
